Results on three compounds are retold here after patent US20250289816A1, “SALTS AND PHARMACUTICAL COMPOSITIONS THEREOF FOR THE TREATMENT OF INFLAMMATORY DISORDERS” (Alfasigma S.p.A., priority 2014, published 2025).

≈ marks a conversion by molar mass, not a printed value.

The nature of series [1]: Dog bioavailability study. The class given is in vivo, beagle dogs. The conditions noted are these: for Cmax / Tmax / Exposure AUC: target dose 10 mg/kg. As to the method:
The dogs are not fasted before dosing, and have free access to water. Every day of the treatment, a half food ration is provided after the T0 blood sampling, 8 to 17 min before treatment, and the second half ration is given just after dosing or 1 h after treatment for period 2. A 3 days washout period is ensured between treatments.
The capsule composition is described in Table XX below.
The capsules are administered orally with water (5-10 mL), to provide good oesophageal transit. Each animal is checked at least once daily.
Blood is collected from the jugular vein into lithium heparinised tubes at TO (before food administration) and then at 1 h, 2 h, 4 h, 6 h, 8 h, 10 h, and 24 h post treatment.
Plasma is then obtained from blood by centrifugation (2500 g for 10 min at 4° C.), and stored at −20° C. until analysis.
After vortex mixing and centrifugation at 4° C., the supernatants are diluted with a 0.5 volume of HPLC grade water in a midi-eppendorf 96-well plate. The plate is sealed and shaken to ensure sample homogeneity prior to analysis.
Pharmacokinetic analysis is performed using WinNonlin™ software version 5.3, using concentrations from individual animals. Non-compartmental analysis is applied to determine the PK parameters (Cmax, Tmax, AUC0-last, t1/2, etc. . . . )
Concentrations below the limit of detection are set to zero for descriptive statistics and PK parameter calculations.

The nature of series [2]: Solubility study in different solvents (UV-spectrometry). The format is physicochemical. The conditions noted are these: at least 24 h. As to the method: The supersaturated solution is then filtered and the concentration of product in the filtrate is determined using UV-spectrometry.
In water, the influence of the pH is adjusted to pH 2, pH 7, and pH 9. HCl and NaOH are used to adjust the pH.

A short description of series [3]: Dissolution in solvents (salt Protocol 1). The conditions noted are these: DCM, up to 20 relative volumes, agitated at 50° C.; not in the other nine solvents. The class given is physicochemical. The source says: The solvent is selected from isopropanol, ethanol, methanol, isopropyl acetate, THF, TBME, acetone, methyl ethyl ketone, DCM, and MeCN.
The nature of a further series: GVS analysis. The format is physicochemical. From the text: The evolution of the material is followed via XPRD at various time points.
Series [4] is described as follows: Complementary salt analysis (XRPD, stability evaluation). The class given is physicochemical. The following applies: salt obtained by Protocol 4.
Series [5] in a line: Thermodynamic aqueous solubility by HPLC. The format is physicochemical. The conditions noted are these: salt obtained by Protocol 4.
Setting [6] is: single oral administration, 1 × 100 mg capsule.
[7] abbreviates: single oral administration, 4 × 25 mg capsules.
[8] abbreviates: oral capsules, on average at the 2 capsule strengths.

Turning to `O=C(Nc1nc2cccc(-c3ccc(CN4CCS(=O)(=O)CC4)cc3)n2n1)C1CC1` [Compound 1, cyclopropanecarboxylic acid {5-[4-(1,1-dioxo-thiomorpholin-4-ylmethyl)-phenyl]-[1,2,4]triazolo[1,5-a]pyridin-2-yl}-amide], the values for the Cmax in series [1] (setting [6]) and in series [1] (setting [7]) were 797 ng/mL and 894 ng/mL, respectively. Further, the time to peak (Tmax) (in general, the time from dosing to the highest level) in series [1] (setting [6]) is 8.0 h; in series [1] (setting [7]) it was 6.0 h. Also, in series [1] (setting [7]), the “Exposure AUC” value turned out to be 10400 ng·h/mL. Besides, the Solubility (commonly the concentration that dissolves in the medium under given conditions) came out at 252 µg/mL (≈ 592 µM) in series [2] (0.005M HCl, 20° C.) and 550 µg/mL (≈ 1290 µM) in series [2] (HP-β-CD 40% pH3, 20° C.). In addition, in series [3], the dissolution in solvent result is “almost full dissolution”.

As to `Cl.O.O.O.O=C(Nc1nc2cccc(-c3ccc(CN4CCS(=O)(=O)CC4)cc3)n2n1)C1CC1` [Compound 1·HCl·3H2O], the “in vivo exposure compared with Compound 1” value in series [1] (setting [8]) is on record as “improved exposure”. Further, in series [1] (setting [8]), the “rate of absorption compared with Compound 1” value is given as “more rapidly absorbed”. Further, the figures for the highest concentration (Cmax) in series [1] (setting [6]) and in series [1] (setting [7]) were 2630 ng/mL and 3050 ng/mL, respectively. Moreover, the “Exposure AUC” value in series [1] (setting [6]) was 21700 ng·h/mL; in series [1] (setting [7]) it was 33600 ng·h/mL. Besides, the time of peak concentration (Tmax) in series [1] (setting [6]) and in series [1] (setting [7]) was 2.0 h each time. Also, the T1/2 result in series [1] (single oral administration, one range across both forms and both capsule strengths) is “Range 4.43-8.96 h”. Further, the Solubility in series [2] (0.005M HCl, 20° C.) worked out at 3100 µg/mL; in series [2] (0.01M HCl + 2.0% Tween 80, 20° C.), 2790 µg/mL; in series [2] (0.01M HCl, 20° C.) it was 2340 µg/mL; in series [2] (Acetone, 20° C.), 415 µg/mL; in series [2] (Acetonitrile, 20° C.), 7360 µg/mL; in series [2] (Acetonitrile/water (1/1), 20° C.), 25600 µg/mL. Besides, the Solubility in series [2] (Acetonitrile/water (4/1), 20° C.) came out at 7810 µg/mL; in series [2] (Dichloromethane, 20° C.), 388 µg/mL; in series [2] (Ethanol, 20° C.), 764 µg/mL; in series [2] (HP-β-CD 40% pH2, 20° C.), 7880 µg/mL; in series [2] (HP-β-CD 40% pH3, 20° C.) it was 9330 µg/mL; in series [2] (HP-β-CD 40% pH4, 20° C.) it was 2790 µg/mL. The Solubility in series [2] (Methanol, 20° C.) is 743 µg/mL; in series [2] (PEG400, 20° C.), 36600 µg/mL; in series [2] (Propanol, 20° C.) it was 663 µg/mL; in series [2] (Propylene glycol, 20° C.) it was 11700 µg/mL; in series [2] (Tetrahydrofuran, 20° C.) it was 208 µg/mL; in series [2] (Water (purified), 20° C.), 3170 µg/mL. Besides, the Solubility in series [2] (Water pH2, 20° C.) turned out to be 8050 µg/mL; in series [2] (Water pH7, 20° C.) it was 2260 µg/mL; in series [2] (Water pH9, 20° C.) it was 2680 µg/mL; in series [2] (Water/ethanol 1/1, 20° C.), 8680 µg/mL; in series [2] (t-butyl methyl ether, 20° C.), 26.3 µg/mL. For the same compound, in “GVS analysis” (GVS, followed by XRPD), the “change in form at elevated RH” value is “No change in form”. Also, the “temperature of dehydration to Compound 1·HCl anhydrous” value in the series “GVS analysis” (upon heating) is “above 60 °C”.

For the compound `Cl.O=C(Nc1nc2cccc(-c3ccc(CN4CCS(=O)(=O)CC4)cc3)n2n1)C1CC1` [HCl salt], in series [4], the “hygroscopicity of the salt” value is given as “non-hygroscopic”. For the same compound, in series [4] (stability evaluation 1 week at 40° C./75% Relative humidity), the “stability of the salt” value was “stable”. Moreover, the aqueous solubility (in general, the dissolved amount per volume that the medium holds) in series [5] was 1900 µg/mL.
